Structures can show the parent of a compound that is named as a salt. Where two headings read alike, the source gives them in different places.
Assays:
MCF-7 cells = assay: MTT cytotoxicity assay, MCF-7; format: cell-based, human; settings: read-out: IC50 MCF-7
Description: (§1) The anticancer activities of compounds 17–24, 41–56 against MCF-7, MDA-MB-231 and hTERT-RPE1 cells were determined in vitro by an MTT assay. […] The data was calculated and presented as IC50 values in Table 1.
(§2) The cytotoxicities of the compounds were evaluated by the MTT assay, which is based on the conversion of MTT to formazan crystals by mitochondrial dehydrogenases. […] The medium was incubated with 20 μL of 5 mg/mL MTT solution for 3 h in a humidified incubator containing 5% CO2. The purple coloured formazan crystals formed in the wells were dissolved in DMSO and their absorbances were measured at 570 nm with a microplate reader. Cell viability was expressed as a percentage of the value in control cultures.

hTERT-RPE1 cells = assay: MTT cytotoxicity assay, hTERT-RPE1 normal cells; format: cell-based, human; settings: read-out: IC50 hTERT-RPE1
Description: as §1, §2

MDA-MB-231 cells = assay: MTT cytotoxicity assay, MDA-MB-231; format: cell-based, human; settings: read-out: IC50 MDA-MB-231
Description: The data was calculated and presented as IC50 values in Table 1.
as §2

[1] = MCF7, human breast cancer cell line MCF-7, MTT method, 24 h treatment, mean ± SD
[2] = normal human retinal pigment epithelial cell line hTERT-RPE1, MTT method, 24 h treatment, mean ± SD
[3] = human breast cancer cell line MDA-MB-231, MTT method, 24 h treatment, mean ± SD

| SMILES | melting point [°C] | IC50 (MCF-7 cells; [1]) [µM] | IC50 (hTERT-RPE1 cells; [2]) [µM] | IC50 (MDA-MB-231 cells; [3]) [µM] | IC50 (MCF-7 cells; Homo sapiens, MCF7, 24 h) [µM] | IC50 (MDA-MB-231 cells; Homo sapiens, MDA-MB-231, 24 h) [µM] | IC50 (hTERT-RPE1 cells; Homo sapiens, hTERT-RPE1, 24 h) [µM] |
| --- | --- | --- | --- | --- | --- | --- | --- |
| COC(=O)/C=C/c1ccc(OC(=O)[C@@]2(C)CC[C@]3(C)CC[C@]4(C)C(=CC(=O)[C@@H]5[C@@]6(C)CC[C@H](OC(=O)[C@@H](N)CCSC)C(C)(C)[C@@H]6CC[C@]54C)[C@@H]3C2)c(OC)c1 (as salt: hydrochloride) [Compound 41, Ferulic acid methyl ester 3β-(l-methionine)-11-oxo-olean-12-en-30-oate hydrochloride] | 203 to 205 |  |  |  |  |  |  |
| COC(=O)/C=C/c1ccc(OC(=O)[C@@]2(C)CC[C@]3(C)CC[C@]4(C)C(=CC(=O)[C@@H]5[C@@]6(C)CC[C@H](OC(=O)[C@@H](N)CC[Se]C)C(C)(C)[C@@H]6CC[C@]54C)[C@@H]3C2)c(OC)c1 (as salt: hydrochloride) [Compound 42, Ferulic acid methyl ester 3β-(l-selenomethionine)-11-oxo-olean-12-en-30-oate hydrochloride] | 210 to 213 |  |  |  |  |  |  |
| COc1cccc2c1C(=O)c1c(O)c3c(c(O)c1C2=O)C[C@@](O)(C(=O)CO)C[C@@H]3O[C@H]1C[C@H](N)[C@H](O)[C@H](C)O1 [ADR, doxorubicin, reference compound] |  | 0.49 ± 0.09 | 2.76 ± 0.11 |  |  |  |  |
| COC(=O)/C=C/c1ccc(OC(=O)[C@@]2(C)CC[C@]3(C)CC[C@]4(C)C(=CC(=O)[C@@H]5[C@@]6(C)CC[C@H](OC(=O)[C@@H](N)CCSC)C(C)(C)[C@@H]6CC[C@]54C)[C@@H]3C2)c(OC)c1 [Compound 41, Ferulic acid methyl ester 3β-(l-methionine)-11-oxo-olean-12-en-30-oate hydrochloride] |  | 6 ± 0.43 | 10.4 ± 0.8 | 3.52 ± 0.61 |  |  |  |
| COC(=O)/C=C/c1ccc(OC(=O)[C@@]2(C)CC[C@]3(C)CC[C@]4(C)C(=CC(=O)[C@@H]5[C@@]6(C)CC[C@H](OC(=O)[C@@H](N)CC[Se]C)C(C)(C)[C@@H]6CC[C@]54C)[C@@H]3C2)c(OC)c1 [Compound 42, Ferulic acid methyl ester 3β-(l-selenomethionine)-11-oxo-olean-12-en-30-oate hydrochloride] |  |  |  |  | 1.88 ± 0.2 | 1.37 ± 0.18 | 4.93 ± 0.36 |
| CCOC(=O)/C=C/c1ccc(OC(=O)[C@@]2(C)CC[C@]3(C)CC[C@]4(C)C(=CC(=O)[C@@H]5[C@@]6(C)CC[C@H](OC(=O)[C@@H](N)CCSC)C(C)(C)[C@@H]6CC[C@]54C)[C@@H]3C2)c(OC)c1 [Compound 43, Ferulic acid ethyl ester 3β-(l-methionine)-11-oxo-olean-12-en-30-oate hydrochloride] |  | 8.62 ± 0.23 | 16.3 ± 0.51 | 5.36 ± 0.44 |  |  |  |
| CCOC(=O)/C=C/c1ccc(OC(=O)[C@@]2(C)CC[C@]3(C)CC[C@]4(C)C(=CC(=O)[C@@H]5[C@@]6(C)CC[C@H](OC(=O)[C@@H](N)CC[Se]C)C(C)(C)[C@@H]6CC[C@]54C)[C@@H]3C2)c(OC)c1 [Compound 44, Ferulic acid ethyl ester 3β-(l-selenomethionine)-11-oxo-olean-12-en-30-oate hydrochloride] |  |  |  |  | 8.45 ± 0.32 | 3.49 ± 0.61 | 12.3 ± 0.46 |
| COC(=O)/C=C/c1ccc(OC(=O)[C@@]2(C)CC[C@]3(C)CC[C@]4(C)C(=CC(=O)[C@@H]5[C@@]6(C)CC[C@H](OC(=O)[C@@H](N)CCSC)C(C)(C)[C@@H]6CC[C@]54C)[C@@H]3C2)cc1 [Compound 45, trans-4-Hydroxycinnamic acid methyl ester 3β-(l-methionine)-11-oxo-olean-12-en-30-oate hydrochloride] |  | 7.24 ± 0.3 | 8.48 ± 0.73 | 6.43 ± 0.84 |  |  |  |
| COC(=O)/C=C/c1ccc(OC(=O)[C@@]2(C)CC[C@]3(C)CC[C@]4(C)C(=CC(=O)[C@@H]5[C@@]6(C)CC[C@H](OC(=O)[C@@H](N)CC[Se]C)C(C)(C)[C@@H]6CC[C@]54C)[C@@H]3C2)cc1 [Compound 46, trans-4-Hydroxycinnamic acid methyl ester 3β-(l-selenomethionine)-11-oxo-olean-12-en-30-oate hydrochloride] |  |  |  |  | 6.02 ± 0.35 | 6.27 ± 0.24 | 6.33 ± 0.19 |
| CCOC(=O)/C=C/c1ccc(OC(=O)[C@@]2(C)CC[C@]3(C)CC[C@]4(C)C(=CC(=O)[C@@H]5[C@@]6(C)CC[C@H](OC(=O)[C@@H](N)CCSC)C(C)(C)[C@@H]6CC[C@]54C)[C@@H]3C2)cc1 [Compound 47, trans-4-Hydroxycinnamic acid ethyl ester 3β-(l-methionine)-11-oxo-olean-12-en-30-oatehydrochloride] |  | 2.65 ± 0.12 | 5.65 ± 1.02 | 2.31 ± 0.65 |  |  |  |
| CCOC(=O)/C=C/c1ccc(OC(=O)[C@@]2(C)CC[C@]3(C)CC[C@]4(C)C(=CC(=O)[C@@H]5[C@@]6(C)CC[C@H](OC(=O)[C@@H](N)CC[Se]C)C(C)(C)[C@@H]6CC[C@]54C)[C@@H]3C2)cc1 [Compound 48, trans-4-Hydroxycinnamic acid ethyl ester 3β-(l-selenomethionine)-11-oxo-olean-12-en-30-oate hydrochloride] |  |  |  |  | 2.42 ± 0.23 | 1.86 ± 0.29 | 7.08 ± 0.73 |
| COC(=O)/C=C/c1ccc(OC)c(OC(=O)[C@@]2(C)CC[C@]3(C)CC[C@]4(C)C(=CC(=O)[C@@H]5[C@@]6(C)CC[C@H](OC(=O)[C@@H](N)CCSC)C(C)(C)[C@@H]6CC[C@]54C)[C@@H]3C2)c1 [Compound 49, Isoferulic acid methyl ester 3β-(l-methionine)-11-oxo-olean-12-en-30-oate hydrochloride] |  | 8.7 ± 0.14 | 8.92 ± 0.55 | 4.56 ± 0.36 |  |  |  |
| COC(=O)/C=C/c1ccc(OC)c(OC(=O)[C@@]2(C)CC[C@]3(C)CC[C@]4(C)C(=CC(=O)[C@@H]5[C@@]6(C)CC[C@H](OC(=O)[C@@H](N)CC[Se]C)C(C)(C)[C@@H]6CC[C@]54C)[C@@H]3C2)c1 [Compound 50, Isoferulic acid methyl ester 3β-(l-selenomethionine)-11-oxo-olean-12-en-30-oate hydrochloride] |  |  |  |  | 5.12 ± 0.58 | 3.13 ± 0.45 | 9.79 ± 0.37 |
| CCOC(=O)/C=C/c1ccc(OC)c(OC(=O)[C@@]2(C)CC[C@]3(C)CC[C@]4(C)C(=CC(=O)[C@@H]5[C@@]6(C)CC[C@H](OC(=O)[C@@H](N)CCSC)C(C)(C)[C@@H]6CC[C@]54C)[C@@H]3C2)c1 [Compound 51, Isoferulic acid ethyl ester 3β-(l-methionine)-11-oxo-olean-12-en-30-oate hydrochloride] |  | 8.81 ± 0.2 | 12.5 ± 0.4 | 4.67 ± 0.74 |  |  |  |
| CCOC(=O)/C=C/c1ccc(OC)c(OC(=O)[C@@]2(C)CC[C@]3(C)CC[C@]4(C)C(=CC(=O)[C@@H]5[C@@]6(C)CC[C@H](OC(=O)[C@@H](N)CC[Se]C)C(C)(C)[C@@H]6CC[C@]54C)[C@@H]3C2)c1 [Compound 52, Isoferulic acid ethyl ester 3β-(l-selenomethionine)-11-oxo-olean-12-en-30-oate hydrochloride] |  |  |  |  | 6.93 ± 0.63 | 3.27 ± 0.66 | 10.1 ± 0.28 |
| COC(=O)/C=C/c1cccc(OC(=O)[C@@]2(C)CC[C@]3(C)CC[C@]4(C)C(=CC(=O)[C@@H]5[C@@]6(C)CC[C@H](OC(=O)[C@@H](N)CCSC)C(C)(C)[C@@H]6CC[C@]54C)[C@@H]3C2)c1 [Compound 53, trans-3-Hydroxycinnamic acid methyl ester 3β-(l-methionine)-11-oxo-olean-12-en-30-oate hydrochloride] |  | 7.2 ± 0.55 | 8.49 ± 0.51 | 3.54 ± 0.46 |  |  |  |
| COC(=O)/C=C/c1cccc(OC(=O)[C@@]2(C)CC[C@]3(C)CC[C@]4(C)C(=CC(=O)[C@@H]5[C@@]6(C)CC[C@H](OC(=O)[C@@H](N)CC[Se]C)C(C)(C)[C@@H]6CC[C@]54C)[C@@H]3C2)c1 [Compound 54, trans-3-Hydroxycinnamic acid methyl ester 3β-(l-selenomethionine)-11-oxo-olean-12-en-30-oate hydro-chloride] |  |  |  |  | 3.48 ± 0.82 | 2.46 ± 0.77 | 4.55 ± 0.44 |
| CCOC(=O)/C=C/c1cccc(OC(=O)[C@@]2(C)CC[C@]3(C)CC[C@]4(C)C(=CC(=O)[C@@H]5[C@@]6(C)CC[C@H](OC(=O)[C@@H](N)CCSC)C(C)(C)[C@@H]6CC[C@]54C)[C@@H]3C2)c1 [Compound 55, trans-3-Hydroxycinnamic acid ethyl ester 3β-(l-methionine)-11-oxo-olean-12-en-30-oate hydrochloride] |  | 5.79 ± 0.85 | 6.63 ± 0.22 | 1.92 ± 0.91 |  |  |  |
| CCOC(=O)/C=C/c1cccc(OC(=O)[C@@]2(C)CC[C@]3(C)CC[C@]4(C)C(=CC(=O)[C@@H]5[C@@]6(C)CC[C@H](OC(=O)[C@@H](N)CC[Se]C)C(C)(C)[C@@H]6CC[C@]54C)[C@@H]3C2)c1 [Compound 56, trans-3-Hydroxycinnamic acid ethyl ester 3β-(l-selenomethionine)-11-oxo-olean-12-en-30-oate hydrochloride] |  |  |  |  | 2.57 ± 0.4 | 1.53 ± 0.25 | 3.7 ± 0.29 |
| CC1(C)[C@@H](O)CC[C@]2(C)[C@H]3C(=O)C=C4[C@@H]5C[C@@](C)(C(=O)O)CC[C@]5(C)CC[C@@]4(C)[C@]3(C)CC[C@@H]12 [GA, glycyrrhetinic acid] |  | 75.7 ± 1.52 | 63.4 ± 1.07 | 84.7 ± 1.73 |  |  |  |
